Results on 34 compounds are retold here after ChEMBL document CHEMBL5233233, “Histone deacetylase 3 (HDAC3) inhibitors as anticancer agents: A review” (Eur J Med Chem, 2020).

Test [1] deals with T1, Histone deacetylase 2 (Homo sapiens, UniProt Q92769). The test can be described thus: Inhibition of HDAC2 (unknown origin) using acetylated 7-amino-4-methylcoumarin (AMC) as peptide substrate measured after 20 mins by fluorescence based analysis.
Test [2] concerns the target T2, Histone deacetylase 1 (Homo sapiens, UniProt Q13547). The test can be described thus: Inhibition of HDAC1 (unknown origin) using acetylated 7-amino-4-methylcoumarin (AMC) as peptide substrate measured after 20 mins by fluorescence based analysis.
For test [3], the target named is T3, Histone deacetylase 3 (Homo sapiens, UniProt O15379). The test is described as follows: Inhibition of HDAC3 (unknown origin) using acetylated 7-amino-4-methylcoumarin (AMC) as peptide substrate measured after 20 mins by fluorescence based analysis.
T3 sequence (O15379 whole entry): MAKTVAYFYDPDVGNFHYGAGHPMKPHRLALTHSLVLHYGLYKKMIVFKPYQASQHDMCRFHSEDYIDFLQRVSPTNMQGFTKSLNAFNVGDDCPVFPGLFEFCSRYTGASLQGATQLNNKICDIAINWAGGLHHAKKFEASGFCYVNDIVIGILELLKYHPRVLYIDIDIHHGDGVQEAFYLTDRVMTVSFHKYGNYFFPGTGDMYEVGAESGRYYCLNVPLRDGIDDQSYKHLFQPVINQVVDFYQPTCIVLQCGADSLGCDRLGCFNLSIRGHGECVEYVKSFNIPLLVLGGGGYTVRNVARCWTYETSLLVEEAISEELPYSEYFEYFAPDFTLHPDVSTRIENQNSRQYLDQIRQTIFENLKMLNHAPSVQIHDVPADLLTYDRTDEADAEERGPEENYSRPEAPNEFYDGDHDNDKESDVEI
The target of test [4] is T2, Histone deacetylase 1. The test is described as follows: Inhibition of HDAC1 (unknown origin) using Boc-Lys (Ac)-AMC as substrate measured after 30 mins by fluorescence based analysis.
In a further test the target is Histone deacetylase. The test is described as follows: Inhibition of human HDAC using human HeLa cell nuclear extract measured after 60 mins by fluorescence assay. Format: subcellular, Nucleus.
Test [5] addresses T3, Histone deacetylase 3. The test is described as follows: Inhibition of human HDAC3 using fluorogenic as substrate measured after 30 mins by fluorescence based analysis.
A further test has as its target T4, Histone deacetylase 8 (Homo sapiens, UniProt Q9BY41).
T4 sequence (Q9BY41 whole entry): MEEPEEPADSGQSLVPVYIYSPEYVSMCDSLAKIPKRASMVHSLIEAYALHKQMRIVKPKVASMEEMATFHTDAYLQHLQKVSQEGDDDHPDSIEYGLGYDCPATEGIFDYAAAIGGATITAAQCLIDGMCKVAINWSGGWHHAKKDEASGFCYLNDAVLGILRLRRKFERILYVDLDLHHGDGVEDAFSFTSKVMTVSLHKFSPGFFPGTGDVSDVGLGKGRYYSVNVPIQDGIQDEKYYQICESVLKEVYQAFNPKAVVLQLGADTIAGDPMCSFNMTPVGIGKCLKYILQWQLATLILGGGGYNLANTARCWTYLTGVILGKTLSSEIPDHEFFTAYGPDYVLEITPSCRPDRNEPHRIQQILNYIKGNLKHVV
The test is described as follows: Inhibition of human recombinant HDAC8 expressed in Escherichia coli BL21 (DE3) cells by using Boc-L-Lys(Ac)-AMC as substrate measured after 24 hrs by fluorescence based analysis.

The target in test [6] is T2, Histone deacetylase 1. The test is described as follows: Inhibition of human recombinant HDAC1 expressed in baculovirus by using Boc-L-Lys(Ac)-AMC as substrate measured after 24 hrs by fluorescence based analysis.
The target of test [7] is T3, Histone deacetylase 3. The test can be described thus: Inhibition of human recombinant HDAC3 expressed in baculovirus by using Boc-L-Lys(Ac)-AMC as substrate measured after 24 hrs by fluorescence based analysis.
The target of test [8] is T1, Histone deacetylase 2. The test is described as follows: Inhibition of human recombinant HDAC2 expressed in baculovirus by using Boc-L-Lys(Ac)-AMC as substrate measured after 24 hrs by fluorescence based analysis.
Test [9] has as its target T1, Histone deacetylase 2. The test is described as follows: Inhibition of human HDAC2 using human HeLa cell nuclear extract at 1 uM measured after 60 mins by fluorescence assay. It is filed as subcellular, Nucleus.
Test [10] has as its target T3, Histone deacetylase 3. The test is described as follows: Inhibition of human HDAC3 using human HeLa cell nuclear extract at 1 uM measured after 60 mins by fluorescence assay. It is filed as subcellular, Nucleus.
The target of test [11] is T2, Histone deacetylase 1. The test can be described thus: Inhibition of human HDAC1 using human HeLa cell nuclear extract at 1 uM measured after 60 mins by fluorescence assay. Format: subcellular, Nucleus.
In test [12] the target is T3, Histone deacetylase 3. The test is described as follows: Inhibition of HDAC3 (unknown origin).
For test [13], the target named is T1, Histone deacetylase 2. The test can be described thus: Inhibition of HDAC2 (unknown origin).
Test [14] addresses T2, Histone deacetylase 1. The test can be described thus: Inhibition of HDAC1 (unknown origin).
The target in test [15] is T2, Histone deacetylase 1. The test is described as follows: Inhibition of human HDAC1 using fluorogenic as substrate measured after 30 mins by fluorescence based analysis.

T2 sequence (Q13547 whole entry): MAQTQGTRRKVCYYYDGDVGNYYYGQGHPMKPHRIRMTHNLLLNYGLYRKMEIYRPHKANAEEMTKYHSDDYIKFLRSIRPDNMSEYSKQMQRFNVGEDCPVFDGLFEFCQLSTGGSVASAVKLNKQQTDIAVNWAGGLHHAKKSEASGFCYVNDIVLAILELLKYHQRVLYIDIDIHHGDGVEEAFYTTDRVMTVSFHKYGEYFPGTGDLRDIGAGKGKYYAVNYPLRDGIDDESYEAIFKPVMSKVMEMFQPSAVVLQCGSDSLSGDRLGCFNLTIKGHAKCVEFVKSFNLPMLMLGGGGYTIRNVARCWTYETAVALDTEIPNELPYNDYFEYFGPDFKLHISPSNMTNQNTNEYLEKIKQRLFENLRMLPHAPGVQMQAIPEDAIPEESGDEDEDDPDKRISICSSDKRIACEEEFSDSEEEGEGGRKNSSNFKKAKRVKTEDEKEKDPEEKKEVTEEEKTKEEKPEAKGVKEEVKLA
T1 sequence (Q92769 whole entry): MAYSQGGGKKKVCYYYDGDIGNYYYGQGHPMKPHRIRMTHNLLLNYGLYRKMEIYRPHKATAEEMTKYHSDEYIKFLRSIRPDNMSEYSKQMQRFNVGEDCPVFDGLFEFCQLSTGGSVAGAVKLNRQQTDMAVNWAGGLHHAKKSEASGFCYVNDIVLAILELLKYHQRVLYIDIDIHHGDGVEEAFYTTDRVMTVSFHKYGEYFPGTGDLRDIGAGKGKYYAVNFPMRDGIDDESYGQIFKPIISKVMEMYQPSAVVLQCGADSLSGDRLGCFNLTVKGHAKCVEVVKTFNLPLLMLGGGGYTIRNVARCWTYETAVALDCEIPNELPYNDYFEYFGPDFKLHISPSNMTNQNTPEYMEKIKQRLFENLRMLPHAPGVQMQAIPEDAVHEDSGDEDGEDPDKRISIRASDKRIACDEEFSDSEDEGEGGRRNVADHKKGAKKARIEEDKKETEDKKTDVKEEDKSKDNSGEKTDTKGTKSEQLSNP

As to `O=C(NNCCCC1CCCC1)c1ccc(Br)cc1`, the IC50 against Histone deacetylase 2 [1], against Histone deacetylase 1 [2] and on Histone deacetylase 3 [3] was more than 50 µM throughout.

On to `CCCCNNC(=O)c1ccccc1`, for which the IC50 on Histone deacetylase 2 [1], against Histone deacetylase 1 [2] and at Histone deacetylase 3 [3] was more than 50 µM each time.

On Histone deacetylase 1 [4], `COC(=O)/C=C/c1ccc(OCCCCNc2cc3c([nH]c4ccccc43)c(-c3ccc(OC)cc3)n2)c(OC)c1` showed a half-inhibitory concentration (IC50) of 0.061 µM.

`O=C(NO)c1ccc(NC(=O)[C@@H](NC(=O)c2ccc3ccccc3c2)c2ccccc2)cc1`: the figures for the IC50 at Histone deacetylase and against Histone deacetylase 3 [5] were 0.0143 µM and 0.0168 µM, respectively.

With `O=C(CCCCCCN(Cc1cc2ccccc2[nH]1)Cc1cc2ccccc2[nH]1)NO`, the 50% inhibitory concentration (IC50) at Histone deacetylase 8 was determined as 4.6 µM; on Histone deacetylase 1 [6], 0.34 µM; on Histone deacetylase 3 [7] it was 1.3 µM; on Histone deacetylase 2 [8] it was 3.7 µM.

Take `Cc1noc(C)c1-c1ccc2c(c1)c(Cc1ccccc1)cn2CCCCCCC(=O)NO`: the figures for the IC50 against Histone deacetylase 2 [9], against Histone deacetylase 3 [10] and against Histone deacetylase 1 [11] were 0.118 µM, 0.023 µM and 0.179 µM, respectively.

On to `O=C(NO)c1ccc(NC(=O)[C@@H](NC(=O)c2ccc(Cl)cc2)c2ccccc2)cc1`, for which the half-inhibitory concentration (IC50) against Histone deacetylase stood at 0.3486 µM.

On to `Cc1ccccc1Cc1cn(CCCCCCC(=O)NO)c2ccc(-c3c(C)noc3C)cc12`, for which the values for the IC50 at Histone deacetylase 2 [9], on Histone deacetylase 3 [10] and against Histone deacetylase 1 [11] were more than 1 µM, 0.05 µM and 0.22 µM, respectively.

Turning to `CCC(=O)CCCCC[C@H](NC(=O)C(C)(C)N(C)C)c1ncc(-c2cc3ccccc3nc2OC)o1`, the half-maximal inhibitory concentration (IC50) against Histone deacetylase 3 [12] was 0.0006 µM.

On to `Cc1noc(C)c1-c1ccc2c(c1)c(CCc1ccc(F)cc1)cn2CCCCCC(=O)NO`, for which the 50% inhibitory concentration (IC50) against Histone deacetylase 2 [9] worked out at 0.946 µM; on Histone deacetylase 3 [10] it was 0.017 µM; against Histone deacetylase 1 [11] it was 0.259 µM.

Regarding `O=C(CCCCCCN(Cc1ccc(-c2ccccc2)s1)Cc1ccc(-c2ccccc2)s1)NO`, the half-maximal inhibitory concentration (IC50) at Histone deacetylase 8 turned out to be 4.1 µM; at Histone deacetylase 1 [6] it was 0.84 µM; at Histone deacetylase 3 [7], 1.1 µM; at Histone deacetylase 2 [8], 3 µM.

`Cc1ccccc1CCc1cn(CCCCCC(=O)NO)c2ccc(-c3c(C)noc3C)cc12`: the IC50 at Histone deacetylase 2 [9] was more than 1 µM; against Histone deacetylase 3 [10] it was 0.062 µM; against Histone deacetylase 1 [11], 0.314 µM.

For `Cc1noc(C)c1-c1ccc2c(c1)c(Cc1ccc(F)cc1)cn2CCCCCC(=O)NO`, the IC50 against Histone deacetylase 2 [9] is 0.517 µM; against Histone deacetylase 3 [10], 0.039 µM; on Histone deacetylase 1 [11] it was 0.341 µM.

For the compound `Cc1noc(C)c1-c1ccc2c(c1)c(CCc1ccccc1)cn2CCCCCCC(=O)NO`, the IC50 against Histone deacetylase 2 [9] is 0.139 µM; against Histone deacetylase 3 [10], 0.028 µM; against Histone deacetylase 1 [11], 0.24 µM.

On to `CCC(=O)CCCCC[C@H](NC(=O)N1CCOCC1)c1ncc(-c2cc3ccccc3nc2OC)o1`, for which the IC50 at Histone deacetylase 3 [12] was 0.007 µM.

For the compound `Cc1noc(C)c1-c1ccc2c(c1)c(Cc1ccc(F)cc1)cn2CCCCCCC(=O)NO`, the IC50 at Histone deacetylase 2 [9] turned out to be 0.298 µM; against Histone deacetylase 1 [11], 0.181 µM.

As to `Cc1ccc(Cc2cn(CCCCCCC(=O)NO)c3ccc(-c4c(C)noc4C)cc23)cc1`, the results for the concentration for half-maximal inhibition (IC50) against Histone deacetylase 2 [9], against Histone deacetylase 3 [10] and on Histone deacetylase 1 [11] were 0.438 µM, 0.018 µM and 0.431 µM, respectively.

On to `O=C(CCCCCCNCc1ccc([N+](=O)[O-])cc1)NO`, for which the concentration for half-maximal inhibition (IC50) turned out to be 2.1 µM on Histone deacetylase 8, 0.22 µM on Histone deacetylase 1 [6], 1 µM on Histone deacetylase 3 [7] and 2.9 µM on Histone deacetylase 2 [8].

For `O=C(NO)c1ccc(NC(=O)[C@@H](NS(=O)(=O)c2cccc3ccccc23)c2ccccc2)cc1`, the concentration for half-maximal inhibition (IC50) at Histone deacetylase came out at 0.0156 µM.

Turning to `COc1ccc(CNCCCCCCC(=O)NO)cc1OC`, the IC50 came out at 1.8 µM at Histone deacetylase 8, 0.21 µM on Histone deacetylase 1 [6], 0.18 µM on Histone deacetylase 3 [7] and 1.8 µM at Histone deacetylase 2 [8].

In the case of `Nc1ccccc1NC(=O)c1ccc(-c2cn(CCc3ccsc3)nn2)cc1`, the IC50 was more than 0.019 µM at Histone deacetylase 2 [13] and more than 100 µM against Histone deacetylase 1 [14].

On to `Cc1cc(CNCCCCCCC(=O)NO)ccc1F`, for which the IC50 at Histone deacetylase 8 was found to be 2.8 µM; at Histone deacetylase 1 [6] it was 0.14 µM; at Histone deacetylase 3 [7], 0.19 µM; on Histone deacetylase 2 [8] it was 0.79 µM.

Consider `Nc1ccccc1NC(=O)c1ccc(-c2cn(CCc3cccc([N+](=O)[O-])c3)nn2)s1`, for which, on Histone deacetylase 2 [13], the IC50 was more than 0.1 µM.

For `O=C(CCCCCCN(Cc1ccc2ccccc2c1)Cc1ccc2ccccc2c1)NO`, the IC50 on Histone deacetylase 8 came to 5.4 µM; on Histone deacetylase 1 [6], 1.1 µM; at Histone deacetylase 3 [7] it was 0.95 µM; on Histone deacetylase 2 [8] it was 4.2 µM.

On to `O=C(CCCCCCNCc1ccc(-c2ccccc2)s1)NO`, for which the concentration for half-maximal inhibition (IC50) on Histone deacetylase 8 is 0.55 µM; at Histone deacetylase 1 [6], 0.048 µM; on Histone deacetylase 3 [7], 0.038 µM; at Histone deacetylase 2 [8] it was 0.69 µM.

Take `O=C(NO)c1ccc(NC(=O)[C@@H](NC(=O)c2cccc(Br)c2)c2ccccc2)cc1`: the results for the IC50 against Histone deacetylase 1 [15], on Histone deacetylase and against Histone deacetylase 3 [5] were 0.0118 µM, 0.0137 µM and 0.0085 µM, respectively.

Consider `O=C(CCCCCCNCc1cc2ccccc2[nH]1)NO`, for which the 50% inhibitory concentration (IC50) at Histone deacetylase 8 was determined as 0.62 µM; on Histone deacetylase 1 [6] it was 0.061 µM; on Histone deacetylase 3 [7], 0.025 µM; on Histone deacetylase 2 [8], 0.26 µM.

As to `O=C(NNCCCc1ccccc1)c1ccc(Br)cc1`, the concentration for half-maximal inhibition (IC50) against Histone deacetylase 2 [1] is more than 50 µM; against Histone deacetylase 1 [2], more than 50 µM; at Histone deacetylase 3 [3], 24.2 µM.

Consider `CN(C)c1cccc2c(S(=O)(=O)N[C@H](C(=O)Nc3ccc(C(=O)NO)cc3)c3ccccc3)cccc12`, for which the IC50 is 0.0247 µM against Histone deacetylase 1 [15], 0.0097 µM against Histone deacetylase and 0.0244 µM against Histone deacetylase 3 [5].

As to `Cc1cccc(Cc2cn(CCCCCCC(=O)NO)c3ccc(-c4c(C)noc4C)cc23)c1`, the figures for the concentration for half-maximal inhibition (IC50) on Histone deacetylase 2 [9], against Histone deacetylase 3 [10] and against Histone deacetylase 1 [11] were 0.127 µM, 0.024 µM and 0.253 µM, respectively.

As for `Cc1noc(C)c1-c1ccc2c(c1)c(Cc1cccc(C(F)(F)F)c1)cn2CCCCCCC(=O)NO`, the results for the concentration for half-maximal inhibition (IC50) at Histone deacetylase 2 [9], against Histone deacetylase 3 [10] and at Histone deacetylase 1 [11] were 0.079 µM, 0.013 µM and 0.031 µM, respectively.

As for `O=C(CCCCCCNCc1ccc2ccccc2c1)NO`, the concentration for half-maximal inhibition (IC50) was 0.32 µM at Histone deacetylase 8, 0.039 µM at Histone deacetylase 1 [6], 0.068 µM on Histone deacetylase 3 [7] and 0.32 µM at Histone deacetylase 2 [8].

Consider `Cc1cccc(Cc2cn(CCCCCC(=O)NO)c3ccc(-c4c(C)noc4C)cc23)c1`, for which the results for the half-inhibitory concentration (IC50) against Histone deacetylase 2 [9], against Histone deacetylase 3 [10] and on Histone deacetylase 1 [11] were 0.568 µM, 0.062 µM and 0.222 µM, respectively.

Regarding `O=C(CCCCCCNCc1ccc(F)cc1)NO`, the concentration for half-maximal inhibition (IC50) on Histone deacetylase 8 worked out at 1.7 µM; at Histone deacetylase 1 [6] it was 0.22 µM; on Histone deacetylase 3 [7], 0.24 µM; at Histone deacetylase 2 [8], 1.5 µM.

As a reminder, the IC50 is the concentration at which inhibition is half-maximal.
